Read-outs that look alike come from different tables or passages of the source.
Legend:
NCp7 = molecular target: T1, NCp7 (Human immunodeficiency virus type 1 group M subtype B, UniProt P03347); assay: NCp7 binding to packaging-site oligonucleotide, electrophoretic mobility shift assay; assay type: biochemical, HIV-1; conditions: for concentration at which NCp7-oligonucleotide complex formation was inhibited: EMSA on nondenaturing polyacrylamide gels; for IC50: Table 9, read-out: Nucleic Acid Binding (I50 µM)
T1 construct: within the nucleocapsid p7 (NCp7) protein portion of the polyprotein
Experimental: Zinc finger reactivity was measured using a Zn specific fluorochrome, TSQ, N-(6-methoxy-8-quinolyl) -p-toluenesulfonamide, assay or a Trp37 zinc finger fluorescence assay. Fluorescent measurements of the Trp37 residue in the C-terminal finger of recombinant HIV-1 NCp7 protein were performed as described by Rice (1995) Science 270:1194-1197; Rice (1997) Antimicrob. Agents Chemother. 41:419-426. Measurement of Zn ejection from both fingers was measured using the Zn-selective fluorchrome probe TSQ (Molecular Probes, Eugene OR) as described by Rice (1996) J. Med. Chem 39:3606-3616. Measurement of the ability of NCp7 to bind to a DNA oligomer, a 44 mer: GGCGACTGGTGAGTACGCCAAAAATTTTGACTAGCGGAGGCTAG (SEQ ID NO:1), analogous to the HIV-1 RNA packaging site was carried out as described by Huang (1998) J. Med. Chem. 41:1371-1381, see also, Rossio (1998) HIV Pathogenesis and Treatment: Keystone Symposium on Molecular and Cellular Biology, Abstract # 4082. Briefly, 50 nM NCp7 was treated with test compounds for 1 hour at RT in […] buffer containing 10% glycerol and 50 mM Tris-HCl (pH 7.5). Labeled oligomer (0.1 picomole, end labeled [^32P]) was added in an equal volume of buffer containing 10% glycerol, 50 mM Tris-HCl (pH 7.5), 400 mM KCl and 40 mM MgCl2. The reaction was continued for 15 min at room temperature, and a total of […] (or 1/4 of the total reaction volume) was separated on nondenaturing 4.5% polyacrylamide gels in 0.5X Tris-Borate electrophoresis buffer. NCp7-oligomer complexes were visualized by autoradiography.
Interaction of zinc finger inhibitors with NCp7 can result in loss of protein structure and their ability to specifically bind oligonucleotides representing the HIV-1ψ packaging site (Huang (1998) supra; Tummino (1997) Antimicrob. Agents Chemother. 41:394-400; South (1993) Protein Sci. 2:3-19; Dannull (1994) EMBO J. 13:1525-1533). The ability of NCp7 to specifically associate with these oligonucleotides after treatment of the protein with a thiolester of the invention was tested. For example, compounds 44, 45 or 47 were very effective at inhibiting Ncp7's ability to associate with target oligonucleotide, as determined using electrophoretic mobility shift assays (EMSA) on nondenaturing polyacrylamide gels. At 1 µM, compound 45 inhibited complex formation. Compounds 44 and 47 inhibited complex formation at 100 µM (see Table 9).

[1] = molecular target: T2, recombinant HIV-1 integrase (Human immunodeficiency virus type 1 group M subtype B, UniProt P03366); assay: Integrase 3' processing and strand transfer assay; assay type: biochemical; conditions: for IC50: Table 7, high dose test of 100 µM, read-out: Integrase I50
T2 construct: The ability of recombinant HIV-1 integrase; S. Hughes, ABL Basic Research NCI-FCRDC, Frederick MD (supplied, not a catalogue product)
Experimental: The 5-bromovaleroyl thioester, compound 44, and two 5-pyridiniovaleroyl thioesters, compounds 45 and 47, were analyzed in mechanistic and target-based assays. […] Assays for activity against HIV-1 reverse transcriptase rAdT (template/primer) and rCdG (template/primer) using recombinant HIV-1 reverse transcriptase (S. Hughes, ABL Basic Research NCI-FCRDC, Frederick MD) were performed as described by Rice (1997) supra. Substrate cleavage of recombinant HIV-1 protease in the presence of test compounds using an HPLC-based methodology with the artificial substrate Ala-Ser-Glu-Asn-Try- Pro-Ile-Val-amide (Multiple Peptide Systems, San Diego CA) was performed as described by Rice (1997) supra. The ability of recombinant HIV-1 integrase (S. Hughes, ABL Basic Research NCI-FCRDC, Frederick MD) to carry out 3' processing and strand transfer activities in the presence of test compounds was performed as described by Buckheit (1994) AIDS Res. Hum. Retroviruses 10:1497-1506, and Turpin (1998) Antimicrob. Agents Chemother. 42: 487-494.

[2] = tested on: HIV-1 replication in TNFα-induced U1; assay: Inhibition of p24 release from TNFα-induced U1 cells; assay type: cell-based
Experimental: (§1) Thiolester compounds were also tested for their ability to inhibit HIV-1 replication in TNFα-induced U1 and ACH-2 cells. U1 cells were induced with 5 ng/ml of TNFα in the presence of various concentrations of the thiolesters 44, 45 or 47. Forty-eight hours later the cultures were characterized for virus p24 antigen production and cell viability. […] Compound 44 killed 60% of the cells at 200 µM. […] Precursor processing evaluation performed as described by Turpin (1997) Antiviral Chem. Chemother. 8:60-69. Thus, thiolester PATEs initiate intracellular disulfide cross-linking of precursor polyproteins during late phase virus assembly and mediate a direct virucidal effect via an attack on the mature NCp7 retroviral zinc fingers in the cell-free virus.

Pr^55gag precursor = molecular target: T3, Pr^55gag precursor (Human immunodeficiency virus type 1 group M subtype B, UniProt P03347); assay: Gag precursor cross-linking and processing in TNFα-induced U1 cells, Western blotting; assay type: cell-based, HIV-1; conditions: for cross-linking of viral precursor polyproteins: TNFα-induced U1 cells, Western blotting; for Pr^55gag precursor processing: after reduction with β-ME, compound 45 at 100 µM
T3 construct: Visualization of viral proteins from TNFα-induced U1 cells by electrophoretic separation and immunoblotting; endogenous in cells; host or cells: TNFα-induced U1 cells (integrated HIV-1 provirus)
Experimental: as §1
Virion cross linking was performed as described by Rice (1995) Science 270:1194-1197 and Turpin (1997) Antiviral Chem. Chemother. 8:60-67. Briefly, highly purified HIV-1 MN (11.8 µg total protein) was incubated for 2 hour with concentrations of compound. Virions were concentrated and residual compound was removed by centrifugation (18,000 x g, 1 h, 4°C). The viral pellet was solubilized in 0.5 M Tris-HCl,(pH 6.8), 50% glycerol, 8% SDS and 0.4% bromophenol blue and proteins resolved by Western blotting. Western blotting to detect the expression of HIV-1 proteins in U1 cells or virus pellets for virion cross-linking experiments was carried out as described by Turpin (1996) J. Virol. 70:6180-6189. Briefly, 50 µg of total cellular protein for U1 experiments or the total virion pellet (11.8 µg total viral protein) for NCp7 cross linking studies was resolved on 4 to 20% polyacrylamide gels in SDS with Tris-Glycine (Novex, San Diego CA). Samples for reduced gels were boiled for 5 min in the presence of 5% β-ME prior to loading. Resolved proteins were electroblotted on to polyvinylidene difluoride (PVDF) membranes, and HIV-1 specific proteins were detected using a mixture of goat anti- HIV-1 NCp7 and p24 or anti-NCp7 for virion proteins alone (a kind gift of L. E. Henderson, AIDS Vaccine Program NCI-FCRDC, Frederick, MD). Western blots were developed using standard chemiluminescence methodologies, as produced and described by Dupont-NEN, Wilmington, DE.

[3] = Human immunodeficiency virus 1, 5 ng/ml TNFα, 48 hours, read-out: inhibition of release of HIV-1 virions (p24) from U1 cells, EC50
[4] = Human immunodeficiency virus 1, Table 9, read-out: U1 Inhibition of p24 (EC50 µM)

| SMILES | concentration at which NCp7-oligonucleotide complex formation was inhibited (NCp7) [µM] | inhibition of HIV-1 integrase enzyme activity [1] | EC50 ([2]; Human immunodeficiency virus 1, 48 h, read-out: inhibition of release of HIV-1 virions (p24) from U1 cells, EC50) [µM] | EC50 ([2]; Human immunodeficiency virus 1, read-out: U1 Inhibition of p24 (EC50 µM)) [µM] | cross-linking of viral precursor polyproteins (Pr^55gag precursor) | Pr^55gag precursor processing (Pr^55gag precursor) | IC50 (NCp7) [µM] | IC50 [1] [µM] | EC50 [2, 3] [µM] | EC50 [2, 4] [µM] |
| --- | --- | --- | --- | --- | --- | --- | --- | --- | --- | --- |
| O=C(CCCC[n+]1ccccc1)Sc1ccccc1C(=O)Nc1ccc(S(=O)(=O)c2ccc([N+](=O)[O-])cc2)cc1 [Compound 47] | 100 | did not inhibit | 10.7 | 10.7 | induced cross-linking of viral precursor polyproteins | inhibited Pr^55gag precursor processing | – | – | – | – |
| CC(=O)NS(=O)(=O)c1ccc(NC(=O)c2ccccc2SC(=O)CCCC[n+]2ccccc2)cc1 [Compound 45, N-[2-(5-pyridinio-valeroylthio)benzoyl]sulfacetamide bromide] | 1 | did not inhibit | – | – | induced cross-linking of viral precursor polyproteins | inhibited Pr^55gag precursor processing | 1 | > 100 | 42.2 | 42.2 |
| CC(=O)NS(=O)(=O)c1ccc(NC(=O)c2ccccc2SC(=O)CCCCBr)cc1 [Compound 44, N-[2-(5-bromovaleroylthio)benzoyl]sulfacetamide] | 100 | did not inhibit | – | – | induced β-ME reversible alterations in the mobility of zinc finger containing HIV-1 precursor proteins | – | 100 | > 100 | 94 | 94 |

— patent EP1087941B9, “THIOLESTERS AND USES THEREOF” (THE UNITED STATES OF AMERICA, as represented by THE …, priority 1998, dated 1999)
